Values after ≈ are worked out from the molar mass of the structure shown. Where two headings read alike, the source gives them in different places.
What was measured:
[1] = system: Influenza A virus (hanfang359/95); assay: Determination of anti-influenza virus activity (CPE in MDCK cells); type: cell-based; conditions: Influenza A virus, MDCK, 36 h
PC12 cells [2] = assay: Neuroprotective activity assay, rotenone injury to PC12 cells (MTT); type: cell-based; conditions: for viability at 10 µM: Rattus norvegicus, PC-12, 48 h, 10 μM test compound, 4 μM rotenone, 48 h, Control 100.0 ± 8.9, Model 73.2 ± 7.8, read-out: rotenone (surviving PC12 cells, MTT 570 nm)
Method in brief: (§1)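 PC12 cells on poly-lysine plated 24 h, then injured 48 h by serum-free DMEM or 4 μM rotenone with 10 μM test compound present during injury. Viability read by MTT (4 h), absorbance 570 nm.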

HCV = assay: Anti-hepatitis C virus (HCV) activity assay (HCV RNA in Huh7.5 cells); type: cell-based; conditions: for EC50: Hepatitis C virus, Huh7.5, 72 h, read-out: HCV EC50
Description: Inoculate Huh7.5 cells into 96-well plates to a density of 3×10^4 cells/cm^2, culture for 24h, infect the cells with 45 IU/cell HCV supernatant, meanwhile, add drug solutions or solvent control for treatment.

Coxsackie virus B6 = assay: Coxsackie virus activity assay (CPE in Vero cells); type: cell-based; conditions: Vero, read-out: COX-B6 IC50, Vero cells, about 100TCID50, CPE, Reed-Muench
HIV-1 III B virus = assay: Anti-HIV activity assay (P24 antigen in MT-4 cells); type: cell-based; conditions: for IC50: Human immunodeficiency virus 1, MT4, 96 h, read-out: HIV IC50
PC12 cells [3] = assay: Neuroprotective activity assay, serum-deprived injury to PC12 cells (MTT); type: cell-based; conditions: for viability at 10 µM: Rattus norvegicus, PC-12, 48 h, 10 μM test compound, 48 h, Control 100.0 ± 9.2, Model 69.3 ± 4.1, read-out: serum-deprived (surviving PC12 cells, MTT 570 nm)
Method in brief: as §1

ovariectomized rats = assay: Protective effect on bone osteoporosis in ovariectomized rats; type: in vivo; conditions: compared with raloxifene
Source text: The present invention also relates to anti-osteoporotic effect of said compounds. According to literature reports, pigeonpea stilbene-type compounds belong to phytoestrogens, the anti-osteoporosis effect of natural products has to do with their estrogen-like effects.

[4] = Huh7.5 cells, 72 h, HCV RNA by RT-PCR, Reed-Muench
[5] = MT-4 cells, HIV-1 III B 100TCID50, 96 h, P24 antigen

**Q.** Which IC50 [1] does the source give for `COc1cc(/C=C/c2ccccc2)c(C(=O)O)c(O)c1CC=C(C)C` [Compound 1, 2-hydroxy-3-isopentenyl-4-methoxy-6-[(E)-styryl]benzoic acid] here?
**A.** 8.9 µg/mL (≈ 26.3 µM)

**Q.** And the viability at 10 µM (PC12 cells [2])?
**A.** 72.3 ± 5.9%

**Q.** What about the EC50 (HCV) of the same molecule?
**A.** 1.21 µg/mL (≈ 3.58 µM)

**Q.** And the “anti-HCV viral activity” value (HCV; statement in words)?
**A.** stronger anti-HIV, HCV viral activities

**Q.** And the IC50 (Coxsackie virus B6)?
**A.** 0.9 µg/mL (≈ 2.66 µM)

**Q.** What about the IC50 (HIV-1 III B virus) of the same molecule?
**A.** 0.27 µg/mL (≈ 0.798 µM)

**Q.** What about the “anti-HIV viral activity” value (HIV-1 III B virus; statement in words) of the same molecule?
**A.** stronger anti-HIV, HCV viral activities

**Q.** What about the viability at 10 µM (PC12 cells [3]) of the same molecule?
**A.** 19.3 ± 1.6%

**Q.** And the “in vivo anti-osteoporotic effect” value (ovariectomized rats)?
**A.** stronger in vivo anti-osteoporotic effect than clinical drug raloxifene

**Q.** With `COc1cc(CCc2ccccc2)cc(O)c1CC=C(C)C` [Compound 10v, 2-isopentenyl-3-methoxy-5-phenethyl phenol] as the molecule, how does the IC50 [1] read?
**A.** > 0.69 µg/mL

**Q.** What about the viability at 10 µM (PC12 cells [2]) of the same molecule?
**A.** 87.1 ± 2.5%

**Q.** What about the “protective effect on rotenone injury to PC12 cells” value (PC12 cells [2]; statement in words) of the same molecule?
**A.** the strongest activities

**Q.** What about the EC50 (HCV; [4]) of the same molecule?
**A.** 1.73 µg/mL (≈ 5.84 µM)

**Q.** And the IC50 (Coxsackie virus B6)?
**A.** > 6.19 µg/mL

**Q.** What about the IC50 (HIV-1 III B virus; [5]) of the same molecule?
**A.** 1.36 µg/mL (≈ 4.59 µM)

**Q.** And the viability at 10 µM (PC12 cells [3])?
**A.** 85.2 ± 4.1%

**Q.** And the “protective effect on serum-deprived injury to PC12 cells” value (PC12 cells [3]; statement in words)?
**A.** the strongest activities

**Q.** `COc1cc(/C=C/c2ccccc2)c(C(=O)O)c(OCN)c1CC=C(C)C` [Compound 26b, 2-aminomethoxy-3-isopentenyl-4-methoxy-6-[(E)-styryl]benzoic acid] was tested. Which IC50 [1] did it give?
**A.** 3.65 µg/mL (≈ 9.93 µM)

**Q.** What about the viability at 10 µM (PC12 cells [2]) of the same molecule?
**A.** 89.7 ± 6.3%

**Q.** And the EC50 (HCV; [4])?
**A.** 5.66 µg/mL (≈ 15.4 µM)

**Q.** What about the IC50 (Coxsackie virus B6) of the same molecule?
**A.** 3.54 µg/mL (≈ 9.63 µM)

**Q.** And the IC50 (HIV-1 III B virus; [5])?
**A.** 7.83 µg/mL (≈ 21.3 µM)

**Q.** What about the viability at 10 µM (PC12 cells [3]) of the same molecule?
**A.** 88.2 ± 4.1%

**Q.** What does the source list for `COC(=O)c1c(O)c(CC=C(C)C)c(OC)c(Cl)c1/C=C/c1ccccc1` [Compound 12, methyl 2-hydroxy-3-isopentenyl-4-methoxy-5-chloro-6-[(E)-styryl]benzoate]?
**A.** IC50 [1]: 6.17 µg/mL (≈ 15.9 µM); viability at 10 µM (PC12 cells [2]): 74.5 ± 3.2%; EC50 (HCV; [4]): 6.87 µg/mL (≈ 17.8 µM); IC50 (Coxsackie virus B6): > 6.17 µg/mL; IC50 (HIV-1 III B virus; [5]): 8.17 µg/mL (≈ 21.1 µM); viability at 10 µM (PC12 cells [3]): 60.2 ± 5.1%

**Q.** Which results are given for `CC/C=C/c1cc(O)c(CC=C(C)C)c(OC)c1` [Compound 10h, 2-isopentenyl-3-methoxy-5-[(E)-buten-1-yl]phenol]?
**A.** IC50 [1]: 0.74 µg/mL (≈ 3 µM); viability at 10 µM (PC12 cells [2]): 67.8 ± 8.5%; EC50 (HCV; [4]): 0.74 µg/mL (≈ 3 µM); IC50 (Coxsackie virus B6): > 2.06 µg/mL; IC50 (HIV-1 III B virus; [5]): 0.96 µg/mL (≈ 3.9 µM); viability at 10 µM (PC12 cells [3]): 65.8 ± 9.2%

— patent publication US9359298B2, “Cajanine structure analogous compound, preparation method and use” (INSTITUTE OF MEDICINAL BIOTECHNOLOGY, CHINESE ACADEMY OF …, priority 2011, dated 2016)
